Laboratory results taken from patent publication US10172884B2, “Dialysis solutions comprising organic esters of phosphoric acid” (Fresenius Medical Care Deutschland GmbH, priority 2015, dated 2019).

Assay: modified rapid controlled precipitation method (controlled degassing of CO2 until precipitation)
Type: physicochemical
Excerpt: The “Rapid-Controlled Precipitation Method” or the “Critical pH Method” can be used for determining the stability of the dialysis solution such as is described in F. Hui et al: Journal European of Water Quality (Journal European d'Hydrologie) T.33 Fasc. 1 (2002).
The results described within the framework of this disclosure were obtained by a modified rapid controlled precipitation method. The experiment setup comprises six 3-neck flasks (Carousel-6 from Radleys) which are open toward the top to ensure a uniform degassing of CO2 from the solution. Furthermore, this setup allows an in-line measurement of e.g. the pH and the conductivity as well as the simultaneous heating of the flasks.
The basic principle of the method used comprises the pH of the mixed solution or of the dialysis solution being slowly raised by controlled degassing of CO2 until the dialysis solution reaches a metastable state and ultimately precipitates.
A pH measurement, a particle count or a turbidity measurement can be used, for example, as methods for detecting the precipitation. […] The measured curves which can be obtained using these methods are compared in FIG. 3. […]
The pHmax and the precipitation products of the different solutions are compiled in Table 4 shown in the following. The values were all determined at 40° C. using the “rapid degassing” method. […]

SMILES: O=P(O)(O)OCC(O)CO (centres unmarked) [glycerol orthophosphate]
- Precipitation product (40° C., rapid degassing method): no phosphates low in solubility are formed
- stability of the solution (pHmax and tG values) (T=40° C., result in words, FIGS. 10, 12, 13, 15): almost the same stabilizing effect as the addition of 0.1 mmol/L orthophosphate
